Source: US20090123373A1, “AMYLOID-IMAGING AGENTS” (priority 2007, published 2009)
Values belong to the molecule of their own block, whether it stands above or below them.

Tests used:
[1] = target: β-amyloid (AD brain homogenates) (Homo sapiens, UniProt P05067); assay: Competitive binding assay with [3H]PIB in AD brain homogenates
Description: Binding was assayed in 12×75 mm borosilicate glass tubes. […] The resulting mixture was incubated at 37° C. for 1 h, and the bound and free radioligands were separated by rapid vacuum filtration through Whatman GF/B glass filter paper using a Brandel M-24R cell harvest and rapidly washed three times at room temperature with PBS. The filters containing the bound radioactivity were transferred to special vials containing 3 ml of universal scintillation fluid. Vials were counted using Beckman LS6500 multi-purpose scintillation counter. Specific binding was estimated as the difference between total and nonspecific binding. Under the assay conditions, the specifically bound fraction was less than 15% of the total radioactivity. The results were subjected to nonlinear regression analysis using software GraphPad Prism by which Kd and Ki values were calculated.
The postmortem brain tissues were obtained from well-defined AD patients. The gray matter was then carefully separated from white matter at autopsy and kept in −70° C. The fresh frozen gray matter was then homogenized by milling it thoroughly in a mortar in the presence of liquid nitrogen. The homogenates were then prepared in phosphate-buffered saline (PBS, pH 7.4) at a concentration of approximately 400 mg tissue/ml, aliquoted into 1-ml portions, and stored
According to the in vitro binding assays, functional groups have moderate effects on the binding affinity. […] In addition, methylation of the amino group increased the binding affinity.

[2] = Partition coefficient determination (n-octanol/PBS); type: physicochemical; settings: n-octanol / PBS 0.1 M pH 7.4, room temperature, triplicate
Description: Partition coefficients were measured by mixing [^125I] 18 (10 μl, RCP>98%, approximately 50,0000 cpm) with sodium phosphate buffer (PBS, 3 g, 0.1 M, pH 7.4) and
n-octanol (3 g, 3.65 ml) in test tubes. The tubes were vortexed for 3 min (1 min 3×) at room temperature followed by centrifugation at 3500 rpm for 5 min. Then 1 ml of buffer and 1 ml of n-octanol were taken out, weighed, and counted. The partition coefficient was determined by calculating the ratio of cpm/g of n-octanol to that of PBS and expressed as logP oct=log [cpm/g (n-octanol)/cpm/g(PBS)]. Another 2 ml from the rest of n-octanol layer was taken out and repartitioned in a tube previously containing 3 g PBS and 1.65 ml of n-octanol until consistent partitions of the coefficient values were obtained. All assays were performed in triplicate.
Based on the conventional octanol-water partition measurement, the lipophilicity of [^125I] 18 was determined in terms of partition coefficients (logP oct). The logP oct of [^125I] 18 was found at 2.70 and the logP oct values of other dibenzothiazole derivatives were then estimated based on coefficients determined by Hansch and Leo (A substituent Constants for Correlation Analysis in Chemistry and Biology (1979) 1st ed.).

[3] = Brain uptake in normal mice after iv injection; type: in vivo, mice (Swiss-Webster); settings: for Brain uptake in mice, 2 min. / Brain uptake in mice, 30 min. / Brain uptake in mice, 60 min.: n = 3, iv tail vein, 0.185 MBq; for Brain uptake in mice, 2 min.: 2 min postinjection; for Brain uptake in mice, 30 min.: 30 min postinjection; for Brain uptake in mice, 60 min.: 60 min postinjection
Description: The radiolabeled ligand [^125I] 18 eluted from C-18 Sep-Pak™ plus cartridge was dissolved in a mixture consisting of saline (2 ml, 9 mg/ml), ethylene glycol (2 ml), ethanol (0.7 ml), and HCl (0.3 ml, […]). Under anesthesia, 0.1 ml of the above solution containing 0.185 MBq of radioactive tracer was administered to the mice through a tail vein injection (Swiss-Webster, n=3, 2 months old). The mice were then sacrificed by a heart puncture at 2, 30, and 60 min postinjection. The brain was rapidly removed, weighed, and counted. The uptake of brain was expressed as percentage of injection dose per gram.
For potential in vivo imaging studies, we radiolabeled compound […] with ^125I for brain uptake studies. Following a single iv injection of [^125I] 18 ([…], 0.185 MBq), the brain permeability was evaluated in normal mice. The brain radioactivity concentration of [^125I] 18 was determined at 2, 30, and 60 min postinjection. […] The initial brain uptake was 3.71±0.63% ID/g at 2 min postinjection, a level that is considered for potential clinical imaging studies. The brain radioactivity concentration decreased sharply to 0.78±0.14% ID/g at 30 min and 0.43±0.12% ID/g at 60 min, with a 2-to-30 min ratio of 5. […] 18 was just as low as it rapidly clears from the normal mouse brain in the absence of amyloid deposits.

[4] = Storage stability of the radioligand; type: physicochemical
Description: 20-30% after HPLC purification. [^125I] 18 was obtained with a radiochemical purity over 98% and a specific activity near the theoretical limit (80 TBq/mmol) based on the no-carrier added sodium [^125I] iodide. The radiochemical identity of [^125I] 18 was verified by co-elution with the non-radioactive cold standard 18 on HPLC profiles. [^125I] 18 was stable enough to be kept for up to 8 h at room temperature and for up to 2 months in the refrigerator.

β-amyloid (AD brain homogenates), sequence (P05067 672-711 limits assumed): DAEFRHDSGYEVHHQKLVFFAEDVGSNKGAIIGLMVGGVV

Compound: Nc1ccc(-c2nc3ccc(-c4nc5ccccc5s4)cc3s2)cc1 [Compound 10]
Ki [1]: 0.0068 to 0.036 µM

Compound: Nc1ccc(-c2nc3ccc(-c4nc5ccccc5s4)cc3s2)cc1[125I] [[^125I]18, 4-[2,6′]dibenzothiazolyl-2′-yl-2-^125I-phenylamine]
logP [2]: 2.7 | 2-to-30 min ratio of brain radioactivity concentration ([3]; iv): 5 | Brain uptake in mice, 2 min. [3]: 3.71 ± 0.63 % ID/g | Brain uptake in mice, 2 min. ([3]; listed as [^125I] 18): 3.71±0.63 % ID/g | Brain uptake in mice, 30 min. [3]: 0.78 ± 0.14 % ID/g | Brain uptake in mice, 30 min. ([3]; listed as [^125I] 18): 0.78±0.14 % ID/g | Brain uptake in mice, 60 min. [3]: 0.43 ± 0.12 % ID/g | Brain uptake in mice, 60 min. ([3]; listed as [^125I] 18): 0.43±0.12 % ID/g | Stability, time it can be kept ([4]; in the refrigerator): up to 2 months | Stability, time it can be kept ([4]; room temperature): up to 8 h

Compound: Nc1ccc(-c2nc3ccc(-c4nc5ccc(Cl)cc5s4)cc3s2)cc1 [Compound 11]
Ki [1]: 0.0068 to 0.036 µM

Compound: Nc1ccc(-c2nc3ccc(-c4nc5ccccc5s4)cc3s2)cc1I [Compound 18, 4-[2,6′]dibenzothiazolyl-2′-yl-2-iodo-phenylamine]
Ki [1]: 0.0068 to 0.036 µM

Compound: CN(C)c1ccc(-c2nc3ccc(-c4nc5ccc(F)cc5s4)cc3s2)cc1 [Compound 17, [4-(6-fluoro-[2,60]dibenzothiazolyl-20-yl)-phenyl]-dimethylamine]
Ki [1]: 0.0068 to 0.036 µM

Other lines, results leading:

Ki [1]: 0.0068 to 0.036 µM
Compound: COc1ccc2nc(-c3ccc4nc(-c5ccc(N)cc5)sc4c3)sc2c1 [Compound 13]

Ki [1]: 0.0068 to 0.036 µM
Compound: Nc1ccc(-c2nc3ccc(-c4nc5ccc(F)cc5s4)cc3s2)cc1 [Compound 12]

Ki [1]: 0.0068 to 0.036 µM
Compound: CNc1ccc(-c2nc3ccc(-c4nc5ccc(F)cc5s4)cc3s2)cc1 [Compound 16, [4-(6-fluoro-[2,60]dibenzothiazolyl-20-yl)-phenyl]-methylamine]

Ki [1]: 0.0068 to 0.036 µM
Compound: CNc1ccc(-c2nc3ccc(-c4nc5ccccc5s4)cc3s2)cc1 [Compound 14]

Ki [1]: 0.0068 to 0.036 µM
Compound: CNc1ccc(-c2nc3ccc(-c4nc5ccc(Cl)cc5s4)cc3s2)cc1 [Compound 15]
